Measurements published in PMC4841536, “Characterization of the Anti-HCV Activities of the New Cyclophilin Inhibitor STG-175” (PLoS ONE, 2016).

What was measured:
[1] = alamarBlue cytotoxicity (CC50), GT4a replicon cell line; settings: human
Description: The anti-HCV activity of STG-175 was conducted using a panel of luciferase reporter replicon cell lines including GT1a, GT1b, GT2a, GT3a and GT4a as we described previously. The GT1a subgenomic renilla luciferase reporter replicon H77 RLucP (7) was supplied by Dr. Delaney. The GT1b subgenomic firefly luciferase reporter replicon pFK-I389/NS3-3’ [29] was supplied by Dr. Bartenschlager. The GT1B subgenomic NS3, NS5A and NS5B mutants were created via homologous recombination using the In-Fusion HD Cloning kit (Clontech) as we described previously. The GT2a genomic luciferase reporter replicon Luc-Neo-JFH-1 was generated as previously. The plasmid pFK-Luc-JFH1 was supplied from Drs. […] The CellTiter-Fluor™ Cell Viability Assay is a non-lytic fluorescence assay, which measures the number of live cells. […] Luciferase activity was determined using the Luciferase Assay System (Promega) in a Berthold luminometer. […] Viable cells continuously convert resazurin to resorufin, increasing the overall fluorescence and color of the media surrounding cells.
Fig 2 Anti-HCV activities of STG-175 among GTs. […] Luciferase activity was determined using the Luciferase Assay System in a Berthold luminometer. […] Data are expressed as mean of relative light units and calculated EC50s are presented. […]

[2] = test system: HCV (JFH-1) in Huh7.5.1 cells; test: Mono-infection, HCV core ELISA; format: cell-based, hepatitis C virus; settings: both 0.5 and 5 μM, added together with virus, 12 days
Excerpt: (§1) For mono-infections: a) human hepatoma Huh7.5.1 cells were infected with HCV (JFH-1) and viral replication was quantified by HCV core ELISA (Ortho HCV antigen ELISA kit; Ortho Clinical Diagnostics, Waco Chemicals, Inc. or HCV Core ELISA, XpressBio); b) sodium-taurocholate co-transporting polypeptide (NTCP)-positive Huh7 cells were infected with hepatitis B virus (HBV) AD38 (produced from HepAD38 cells) and viral replication was quantified by HBV HBeAg ELISA; and c) human (peripheral blood monocytic cells (PBMCs) were infected with HIV-1 (JR-CSF) and viral replication was quantified by HIV-1 capsid/p24 ELISA. PBMCs were isolated as described previously. The Scripps Research Institute Normal Blood Donor Service (TSRI NBDS) provides TSRI investigators who have Human Subjects Committee-approved protocols with a source of normal blood for their research. Donors are assured of a controlled clinical setting for their blood to be drawn by licensed phlebotomists, and investigators are assured that the donors whose specimens they obtain through the service have been screened upon entry into the program and annually thereafter for a CBC, Hepatitis B and C and HIV-1. Hemoglobin determinations at every donation protect the donor from phlebotomy-induced anemia. […]

[3] = test system: HIV-1 (JR-CSF) in activated PBMCs; test: Mono-infection, HIV-1 capsid/p24 ELISA; format: cell-based; settings: added together with virus, 12 days
Excerpt: as §1

[4] = test system: HBV in mixed PBMCs, NTCP-Huh7 and Huh7.5.1 cells; test: Dual/triple co-infection in cell co-cultures, HBV readout; format: cell-based, hepatitis B virus

For `CC=CCC(C)C(O)C1C(=O)NC(CC)C(=O)N(C)C(CSCCCCO)C(=O)N(C)C(CC(C)(C)O)C(=O)NC(C(C)C)C(=O)N(C)C(CC(C)C)C(=O)NC(C)C(=O)NC(C)C(=O)N(C)C(CC(C)C)C(=O)N(C)C(CC(C)C)C(=O)N(C)C(C(C)C)C(=O)N1C` (stereo not drawn) [STG-175], the CC50 at 72 h [1] was greater than 10 µM, the “HCV infection (HCV core ELISA)” value [2] was “totally blocked” and the “HIV-1 infection (HIV-1 capsid ELISA)” value ([3]; 0.5 μM) was “significantly decreased infection”. For the same compound, the “HIV-1 infection (HIV-1 capsid ELISA)” value ([3]; 5 μM) was “fully blocked”, the “HBV infection in co-infection” value ([4]; STG-175 added together with virus) was “greatly attenuated” and the “pre-established HBV infection in co-infection” value ([4]; added 3 days post-infection and then every 3 days) was “decreased the viral expansion”.
